Results taken from PubChem BioAssay (NCI).
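A five-concentration, 48-hour dose response in 96-well plates underlies each endpoint, interpolated linearly between surrounding concentrations. GI50 = concentration required for 50% inhibition of growth. TGI is the concentration that stops growth completely.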

Assays:
Assay in all cases: NCI anticancer screen, dose series, 48 h
MOLT-4 leukemia = tested on: MOLT-4 leukemia
NCI-H226 lung = tested on: NCI-H226 lung
NCI-H23 lung = tested on: NCI-H23 lung
NCI-H460 lung = tested on: NCI-H460 lung
NCI-H522 lung = tested on: NCI-H522 lung
NCI/ADR-RES ovarian = tested on: NCI/ADR-RES ovarian
OVCAR-3 ovarian = tested on: OVCAR-3 ovarian
OVCAR-4 ovarian = tested on: OVCAR-4 ovarian
OVCAR-5 ovarian = tested on: OVCAR-5 ovarian
OVCAR-8 ovarian = tested on: OVCAR-8 ovarian
RPMI-8226 leukemia = tested on: RPMI-8226 leukemia
RXF 393 renal = tested on: RXF 393 renal
SF-268 CNS = tested on: SF-268 CNS
SF-295 CNS = tested on: SF-295 CNS
SF-539 CNS = tested on: SF-539 CNS
SK-MEL-2 melanoma = tested on: SK-MEL-2 melanoma
SK-MEL-5 melanoma = tested on: SK-MEL-5 melanoma
SK-OV-3 ovarian = tested on: SK-OV-3 ovarian
SN12C renal = tested on: SN12C renal
SNB-19 CNS = tested on: SNB-19 CNS
SNB-75 CNS = tested on: SNB-75 CNS
SR leukemia = tested on: SR leukemia
T-47D breast = tested on: T-47D breast
TK-10 renal = tested on: TK-10 renal
U251 CNS = tested on: U251 CNS
UACC-257 melanoma = tested on: UACC-257 melanoma
UO-31 renal = tested on: UO-31 renal

COc1ccc2[nH]c(O)c(N=Nc3nc(-c4ccc(Cl)cc4)cs3)c2c1
GI50 (MOLT-4 leukemia): 3.26 µM
TGI (MOLT-4 leukemia): > 100 µM
GI50 (NCI-H226 lung): 3 µM
TGI (NCI-H226 lung): 12.4 µM
GI50 (NCI-H23 lung): 2120 nM
TGI (NCI-H23 lung): 5.62 µM
GI50 (NCI-H460 lung): 2680 nM
TGI (NCI-H460 lung): 6.25 µM
GI50 (NCI-H522 lung): 2090 nM
TGI (NCI-H522 lung): 6.38 µM
GI50 (NCI/ADR-RES ovarian): 1920 nM
TGI (NCI/ADR-RES ovarian): 4.03 µM
GI50 (OVCAR-3 ovarian): 1810 nM
TGI (OVCAR-3 ovarian): 3.53 µM
GI50 (OVCAR-4 ovarian): 1830 nM
TGI (OVCAR-4 ovarian): 3.54 µM
GI50 (OVCAR-5 ovarian): 3.09 µM
TGI (OVCAR-5 ovarian): 17 µM
GI50 (OVCAR-8 ovarian): 1860 nM
TGI (OVCAR-8 ovarian): 3.71 µM
GI50 (RPMI-8226 leukemia): 3.91 µM
TGI (RPMI-8226 leukemia): > 100 µM
GI50 (RXF 393 renal): 1670 nM
TGI (RXF 393 renal): 3.29 µM
GI50 (SF-268 CNS): 4.41 µM
TGI (SF-268 CNS): > 100 µM
GI50 (SF-295 CNS): 5.01 µM
TGI (SF-295 CNS): 20.6 µM
GI50 (SF-539 CNS): 1980 nM
TGI (SF-539 CNS): 4.22 µM
GI50 (SK-MEL-2 melanoma): 3.14 µM
TGI (SK-MEL-2 melanoma): 34.4 µM
GI50 (SK-MEL-5 melanoma): 4.1 µM
TGI (SK-MEL-5 melanoma): 19.4 µM
GI50 (SK-OV-3 ovarian): 3.07 µM
TGI (SK-OV-3 ovarian): 19.7 µM
GI50 (SN12C renal): 1930 nM
TGI (SN12C renal): 4.42 µM
GI50 (SNB-19 CNS): 4.56 µM
TGI (SNB-19 CNS): 38.3 µM
GI50 (SNB-75 CNS): 3.36 µM
TGI (SNB-75 CNS): 17.5 µM
GI50 (SR leukemia): 4.69 µM
TGI (SR leukemia): > 100 µM
GI50 (T-47D breast): 1830 nM
TGI (T-47D breast): 5.97 µM
GI50 (TK-10 renal): 9.16 µM
TGI (TK-10 renal): 32.3 µM
GI50 (U251 CNS): 2060 nM
TGI (U251 CNS): 4.18 µM
GI50 (UACC-257 melanoma): 6.52 µM
TGI (UACC-257 melanoma): > 100 µM
GI50 (UO-31 renal): 3.3 µM
TGI (UO-31 renal): 16.3 µM
